These results are taken from patent publication US20020006915A1, “Use of COX-2 inhibitors to treat sepsis, complications thereof, and EP receptor modulation” (priority 2000, published 2002).

Entries after “also recorded” stand apart in the source; their conditions may differ. Marks after values point to notes of the source that are not given here.

Experiment [1] concerns LPS stimulated splenic macrophages. Kind of experiment: Mediator production (PGE2, IL-6, TNF-α, NO) by stimulated splenic macrophages 7 days after injury, 3 in vivo doses of NS-398 within 24 h. Further details: species or system BALB/c mice. The protocol:
Vehicle mice were injected with a 4% DMSO solution.
Spleens were collected aseptically and placed in separate petri dishes containing cold (4° C.) Hanks Balanced Salt Solution without calcium and magnesium (Gibco BRL, Life Technologies Inc, Grand Island, N.Y.). Splenocytes were isolated by gentle mechanical disruption of the spleen with filtration through a nylon mesh (Spectrum, Laguna Hills, Calif.). The suspension was centrifuged for 7 minutes, at 500 g and 4° C. After resuspension, erythrocytes were lysed with an ammonium chloride solution for 4 minutes and the lysate was centrifuged as previously described. The remaining pellet was resuspended in complete RPMI-1640 (Gibco BRL, Life Technologies Inc), containing 1% antibiotic/antimycotic solution and 10% heat-inactivated fetal bovine serum (Gibco BRL, Life Technologies Inc), counted and diluted to a final cell concentration of 5×10^6 cells/ml and plated. After allowing macrophages to adhere for 2 hours, the remaining cells were suctioned off and macrophages were incubated with 10 ng/ml LPS 055:B5 (Sigma, St. Louis, Mo.) for PGE2, IL-6 and TNFα determination, or (10 ng/ml LPS+100 U/ml recombinant mouse IFN-γ (Pharmingen, San Diego, Calif.) for NO2^− determination. Cells were incubated at 37° C. in a 5% CO2 atmosphere, and supernatants harvested at 24 hours and frozen at −70° C. for determination of prostaglandin, cytokine and NO production.
NO2^− was measured indirectly by determination of NO2^− concentration using the Greiss reagent system (Promega, Madison, Wis.). The BCA protein assay (Pierce, Rockford, Ill.) was used to quantify protein and all measurements were normalized to protein content per well.
Balb/c mice (n=8/group) were given 3 intraperitoneal injections of 10 mg/kg NS398; immediately following injury, at 12 and 24 hours after sham injury or trauma (femur fracture and 40% blood volume hemorrhage). Sham+placebo (C); sham+NS398 (CN); trauma+placebo (T); or trauma+NS398 (TN) groups were studied. On day 7 after injury, mice were sacrificed and splenic macrophages evaluated for cytokine production and expression of COX-2 mRNA. In a separate study, mice (n=10-12/group) were treated in an identical fashion. After 7 days, cecal ligation and puncture was performed and animals followed for survival.

A further experiment relates to COX-2 mRNA. Kind of experiment: COX-2 mRNA expression in LPS stimulated splenic macrophages by RT-PCR (3 doses within 24 h). The class given is in vivo, BALB/c mice. Conditions: traumatized mice + NS-398, 3 doses within 24 h, day 7. The protocol:
Isolated splenic macrophages were treated with lipopolysaccharide (LPS) (10 ng/ml) for six hours.
To evaluate the relative expression of COX-2 mRNA, splenic macrophages were treated as previously described and harvested by RT-PCR.

The test system of experiment [2] is plasma PGE2. Kind of experiment: Plasma PGE2 levels at 1 and 7 days after trauma. The format is in vivo, BALB/c mice. On the procedure: Plasma PGE2 levels were determined in separate experiments by sacrificing mice at 1 day and at 7 days after treatment with NS-398. There was an increase in PGE2 levels at 1 and 7 days after traumatic injury compared with uninjured controls.

Experiment [3] deals with plasma PGE2. Kind of experiment: Plasma PGE2 of mice at 6 h after traumatic injury. The format is in vivo, BALB/c mice. Conditions: for PGE2 levels at 6 h: pooled serum n=6. The protocol: Vehicle mice were injected with a 4% DMSO solution. To evaluate the efficacy of NS-398 on plasma PGE2 levels, mouse blood was collected at 6 hours after injury±treatment. […] At 6 hours after trauma, plasma PGE2 levels were increased from […] to 49,733 […]).

Another experiment concerns EP2 receptor. Kind of experiment: EP2 receptor expression in LPS stimulated human PBMC's via RT-PCR. The class given is cell-based. To be noted: PBMC's after injury, co-incubation with NS-398. The protocol: Serial dilutions were made to co-culture cells with a final concentration of […] NS-398 in a 0.1% DMSO. Control and trauma groups were co-cultured with 0.1% DMSO vehicle for comparisons with NS-398 treated groups.

Experiment [4] relates to BALB/c mice given a septic challenge by cecal ligation and puncture. Kind of experiment: Survival after septic challenge (cecal ligation and puncture) on day 7 after trauma, 3 doses of NS-398 within 24 h. The format is in vivo. From the text:
A value of p<0.05 was considered significant. […] A value of p<0.05 was considered significant.

For a further experiment, the system named is IκB-α. Kind of experiment: Western blot of cytosolic IκB-α in splenic macrophages. The format is in vivo, BALB/c mice. To be noted: NS-398 treatment after trauma, over 7 days. On the procedure:
Cytoplasmic fractions were collected after splenic macrophages were stimulated (as described above) and then boiled in equal volumes of loading buffer (125 mM Tris-HCl, pH 6.8, 4% sodium dodecyl sulfate, 20% glycerol and 10% 2-mercaptoethanol) for 3 minutes and were then separated by electrophoresis on a tris-glycine gradient gel. The proteins were then transferred to nitrocellulose membranes (Xcell II Blot Module; Novex). The membranes were blocked with 10% non-fat dried milk in Tris-buffered saline (TBS), pH 7.6, containing 0.05% tween-20 (TTBS) for 1 hour and then incubated with a polyclonal rabbit anti-mouse antibody to IκB-α (Santa Cruz Laboratories) for 45 minutes. After washing twice in TTMS, the blots were incubated with a peroxidase-conjugated goat anti-rabbit IgG secondary antibody for 15 minutes. The blots were washed in TTBS for 5 minutes three times, then in TBS for 5 minutes, incubated in enhanced chemiluminescence reagents (ECL, Amersham Life Sciences, Buckingham, England) and exposed on radiographic film (Kodak, Rochester, N.Y.).

[5] abbreviates: T + NS, 3 i.p. injections of 10 mg/kg, splenic macrophages day 7.

For the compound `CS(=O)(=O)Nc1ccc([N+](=O)[O-])cc1OC1CCCCC1` [NS-398, N-(2-cyclohexyloxy-4-nitrophenyl)methanesulfonamide], the IL-6 in experiment [1] (setting [5]) came out at 5.4 ± 0.9 pg/μg protein. Moreover, the NO in experiment [1] (setting [5]) is 8 ± 4 nmol/μgprot. In addition, the TNF-α in experiment [1] (setting [5]) was 2.0 ± 0.5. The PGE2 in experiment [1] (T + NS, 3 i.p. injections of 10 mg/kg, splenic macrophages day 7, n=8) is 71 ± 14. For the same compound, the PGE2 production from LPS stimulated splenic macrophages is 87 ± 10 pg/µg protein in experiment [1] (control mice treated with NS-398 (CN), 7 days) and 71 ± 5 pg/µg in experiment [1] (trauma+NS-398 mice, 7 days following injury, treatment for 24 hours post-injury, ±SEM). In addition, in experiment [1] (injured mice + NS-398, 7 days), the “IL-6 level, splenic macrophages” value was found to be 5.4 ± 0.3 pg/µg. In addition, the “nitrite levels, LPS+IFN-γ stimulated splenic macrophages” value in experiment [1] (injured mice + NS-398, 7 days) stood at 0.007 ± 0.004 nmol/µg. Also, in experiment [1] (trauma + NS-398 (TN), 7 days following trauma), the “TNF-α production, splenic macrophages” value was determined as 2.0 ± 0.2 pg/µL. For the same compound, the “COX-2 mRNA levels relative to GAPDH” value is “attenuated the levels of COX-2 mRNA to below control levels” in the experiment on COX-2 mRNA and “significant decreases” in the experiment with COX-2 mRNA (listed as NS398). Further, the figures for the “Plasma PGE2 Day 1” value with plasma PGE2 [2] (Control + NS-398) and in the experiment on plasma PGE2 [2] (Trauma + NS-398) were 24,652 pg/ml and 26,370 pg/ml, respectively. Further, the “Plasma PGE2 Day 7” value was 7,244 pg/ml in the experiment with plasma PGE2 [2] (Control + NS-398) and 4,354 pg/ml in the experiment on plasma PGE2 [2] (Trauma + NS-398). Besides, the “Plasma PGE2 levels (in words)” value in the experiment with plasma PGE2 [2] (control and injured mice, 1 and 7 days) was “attenuated in both control and injured mice”. Further, the “PGE2 levels at 6 h” value in the experiment with plasma PGE2 [3] (Control + NS-398, plasma) was 35,961 pg/ml; in the experiment on plasma PGE2 [3] (Trauma + NS-398, plasma), 29,902 pg/ml. In the experiment on plasma PGE2 [3] (injured mice treated with NS-398 (TN), 6 hours after trauma), this compound displayed a plasma PGE2 levels of 29900 pg/mL. Moreover, the EP2 receptor expression entry with EP2 receptor is “returns to control levels; also recorded: restored”. Moreover, the survival in experiment [4] (T + NS, 3 i.p. injections of 10 mg/kg, CLP on day 7, n=10-12) is 92%#; in experiment [4] (control mice treated with NS-398), 66%; in experiment [4] (traumatized mice treated with NS-398) it was 92%. In addition, the “cytosolic IκB” value in the experiment on IκB-α was “an increase in cytosolic IκB”.
